Source: the supplement of paper PMC10307832

These cell lines were tested with CC1CC(=O)N(C2=CN=C(N=C2N1C3CCCC3)NC4=C(C=C(C=C4)C(=O)NC5CCN(CC5)C)OC)C [NPK76-II-72-1] + Cc1cc(Nc2cc(N3CCN(C)CC3)nc(Sc3ccc(NC(=O)C4CC4)cc3)n2)n[nH]1 [Tozasertib] (partner 0.1 µM) (assay: relative viability (nuclei count vs DMSO), 5 days (fraction); higher = more cells survive). Details: first compound 1 µM.
Outline: (§1)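 Relative viability was taken as the ratio of nuclei in treated wells to nuclei in vehicle wells. Lung cancer cell lines in 1536-well plates received compounds by pin tool one day after seeding, either one drug alone or a fixed anchor-drug dose plus five library-drug doses (not always all listed) in √10 steps. Nuclei were counted on 4× images after 5 days of treatment, and values are medians of duplicate plates.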

In the case of LC-2-ad, the relative viability is reported as 0.493.

What follows are cell lines tested with CC[C@@H]1C(=O)N(C)c2cnc(Nc3ccc(C(=O)NC4CCN(C)CC4)cc3OC)nc2N1C1CCCC1 [BI-2536] + Cc1nc(NC(=O)N2CCC[C@H]2C(N)=O)sc1-c1ccnc(C(C)(C)C(F)(F)F)c1 [Alpelisib] (partner 2 µM) in the same assay as above. Details: first compound 0.01 µM.
Outline: as §1

In order of rising relative viability:
1. LCLC-97TM1  0.197
2. HCC-78  0.357
3. LC-2-ad  0.521
4. NCI-H460  0.523
5. LU99A  0.53
6. NCI-H441  0.613
7. NCI-H1734  0.634
8. NCI-H2405  0.665
9. NCI-H1355  0.701
10. NCI-H23  0.734
11. NCI-H1793  0.785
12. HCC-15  0.835
13. NCI-H3122  0.877
14. NCI-H322M  0.912
15. NCI-H1651  0.93
16. EKVX  0.933
17. HCC-827  0.934
18. EPLC-272H  0.951
19. PC-14  0.951
20. NCI-H1395  0.958
21. NCI-H1437  0.981
22. NCI-H1755  0.989
23. 201T  0.997
24. LXF-289  1.02
25. HARA  1.03
26. NCI-H2347  1.03
27. HOP-62  1.04
28. BEN  1.05
29. NCI-H1915  1.05
30. A-427  1.11
31. CAL-12T  1.13
32. NCI-H647  1.19

Same assay, conditions: first compound 0.03162 µM

In order of rising relative viability:
1. LCLC-97TM1  0.219
2. NCI-H441  0.235
3. HCC-78  0.295
4. LC-2-ad  0.348
5. NCI-H2405  0.408
6. NCI-H460  0.481
7. NCI-H1395  0.502
8. LU99A  0.515
9. NCI-H647  0.57
10. NCI-H1793  0.639
11. NCI-H3122  0.662
12. HCC-15  0.73
13. NCI-H23  0.737
14. NCI-H1437  0.742
15. EPLC-272H  0.758
16. NCI-H1734  0.777
17. BEN  0.779
18. NCI-H1355  0.797
19. EKVX  0.826
20. NCI-H1651  0.828
21. NCI-H322M  0.881
22. PC-14  0.891
23. NCI-H1755  0.903
24. NCI-H2347  0.923
25. HARA  0.927
26. LXF-289  0.975
27. NCI-H1915  0.977
28. 201T  1.03
29. HCC-827  1.03
30. A-427  1.04
31. HOP-62  1.06
32. CAL-12T  1.07

Same assay, conditions: first compound 0.1 µM

In order of rising relative viability:
1. NCI-H460  0.0303
2. LC-2-ad  0.0935
3. NCI-H441  0.148
4. LU99A  0.209
5. LCLC-97TM1  0.214
6. NCI-H3122  0.354
7. NCI-H23  0.369
8. NCI-H2405  0.374
9. HCC-78  0.379
10. NCI-H1437  0.422
11. NCI-H1395  0.43
12. NCI-H1793  0.469
13. NCI-H1734  0.51
14. LXF-289  0.519
15. NCI-H1651  0.558
16. NCI-H647  0.571
17. HCC-15  0.691
18. BEN  0.695
19. NCI-H1755  0.711
20. NCI-H1355  0.753
21. EKVX  0.791
22. NCI-H322M  0.811
23. NCI-H1915  0.812
24. HARA  0.843
25. HCC-827  0.867
26. PC-14  0.877
27. NCI-H2347  0.89
28. HOP-62  0.922
29. 201T  0.973
30. A-427  1.03
31. CAL-12T  1.08

Same assay, conditions: first compound 0.3162 µM

In order of falling relative viability:
1. NCI-H322M  0.618
2. NCI-H1395  0.499
3. NCI-H2347  0.448
4. 201T  0.441
5. A-427  0.381
6. NCI-H1755  0.284
7. HCC-827  0.282
8. BEN  0.261
9. NCI-H1355  0.226
10. HCC-78  0.211
11. NCI-H1793  0.204
12. NCI-H3122  0.198
13. NCI-H1734  0.192
14. HOP-62  0.176
15. EKVX  0.175
16. CAL-12T  0.173
17. NCI-H441  0.168
18. LU99A  0.146
19. HCC-15  0.142
20. NCI-H23  0.139
21. NCI-H2405  0.132
22. LCLC-97TM1  0.129
23. NCI-H1915  0.129
24. NCI-H1437  0.113
25. NCI-H647  0.0897
26. EPLC-272H  0.0883
27. NCI-H1651  0.0805
28. LC-2-ad  0.0735
29. PC-14  0.0726
30. HARA  0.062
31. LXF-289  0.0396
32. NCI-H460  0.0093

Same assay, conditions: first compound 1 µM

In order of rising relative viability:
1. NCI-H460  0.0065
2. LXF-289  0.0625
3. PC-14  0.0642
4. HARA  0.0695
5. NCI-H1651  0.0804
6. NCI-H647  0.091
7. NCI-H1437  0.0916
8. NCI-H1915  0.0999
9. HOP-62  0.104
10. EPLC-272H  0.114
11. HCC-15  0.117
12. NCI-H23  0.135
13. A-427  0.136
14. LCLC-97TM1  0.141
15. CAL-12T  0.141
16. HCC-78  0.164
17. NCI-H1793  0.165
18. NCI-H1355  0.17
19. NCI-H441  0.178
20. LU99A  0.179
21. NCI-H3122  0.203
22. NCI-H1734  0.222
23. HCC-827  0.243
24. BEN  0.245
25. NCI-H322M  0.269
26. 201T  0.285
27. NCI-H1755  0.296
28. NCI-H2405  0.365
29. NCI-H1395  0.369
30. NCI-H2347  0.497
